From ChEMBL document CHEMBL4507291 (2021)

Key:
[1] = target: Phosphorylase b kinase regulatory subunit alpha, liver isoform (Homo sapiens) (UniProt P46019)
[2] = target: Calcium/calmodulin-dependent protein kinase kinase 2 (Homo sapiens) (UniProt Q96RR4)
[3] = target: 1-phosphatidylinositol 3-phosphate 5-kinase (Homo sapiens) (UniProt Q9Y2I7)
[4] = target: Dual specificity mitogen-activated protein kinase kinase 7 (Homo sapiens) (UniProt O14733)
[5] = target: T1, Mitogen-activated protein kinase kinase kinase 3 (Homo sapiens) (UniProt Q99759)
T1 sequence (whole entry): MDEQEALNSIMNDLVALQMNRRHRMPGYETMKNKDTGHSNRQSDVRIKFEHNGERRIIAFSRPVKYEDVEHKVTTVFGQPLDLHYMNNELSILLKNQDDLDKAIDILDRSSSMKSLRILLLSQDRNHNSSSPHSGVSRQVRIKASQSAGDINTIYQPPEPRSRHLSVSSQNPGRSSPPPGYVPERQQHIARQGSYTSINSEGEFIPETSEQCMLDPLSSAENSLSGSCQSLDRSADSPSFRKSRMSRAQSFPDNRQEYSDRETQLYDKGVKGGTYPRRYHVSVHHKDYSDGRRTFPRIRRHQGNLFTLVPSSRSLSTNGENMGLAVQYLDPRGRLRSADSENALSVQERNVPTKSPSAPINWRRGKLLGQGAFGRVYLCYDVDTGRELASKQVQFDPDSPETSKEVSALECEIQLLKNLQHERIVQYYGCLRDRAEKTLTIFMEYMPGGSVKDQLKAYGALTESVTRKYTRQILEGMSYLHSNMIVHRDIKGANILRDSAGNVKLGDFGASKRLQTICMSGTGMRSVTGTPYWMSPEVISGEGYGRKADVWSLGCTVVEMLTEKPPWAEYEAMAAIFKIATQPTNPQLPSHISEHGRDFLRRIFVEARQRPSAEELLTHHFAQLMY

[6] = target: Death-associated protein kinase 2 (Homo sapiens) (UniProt Q9UIK4)
[7] = target: Serine/threonine-protein kinase PAK 2 (Homo sapiens) (UniProt Q13177)
Sequence of Serine/threonine-protein kinase PAK 2 (Homo sapiens) (Q13177 whole entry): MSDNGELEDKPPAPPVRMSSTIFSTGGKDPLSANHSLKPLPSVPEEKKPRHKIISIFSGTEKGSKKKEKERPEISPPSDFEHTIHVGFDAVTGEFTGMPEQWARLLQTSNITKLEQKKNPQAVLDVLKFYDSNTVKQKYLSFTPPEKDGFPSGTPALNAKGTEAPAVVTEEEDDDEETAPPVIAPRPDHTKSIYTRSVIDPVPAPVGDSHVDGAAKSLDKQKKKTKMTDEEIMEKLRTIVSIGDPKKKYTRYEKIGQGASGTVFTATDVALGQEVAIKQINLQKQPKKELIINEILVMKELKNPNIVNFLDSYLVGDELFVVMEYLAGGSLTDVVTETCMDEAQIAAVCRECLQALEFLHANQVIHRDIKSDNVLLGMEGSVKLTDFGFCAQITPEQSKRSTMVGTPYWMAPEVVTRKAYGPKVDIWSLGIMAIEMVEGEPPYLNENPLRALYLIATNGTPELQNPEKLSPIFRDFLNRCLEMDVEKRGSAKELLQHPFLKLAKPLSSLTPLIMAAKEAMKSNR

[8] = target: T2, Mitogen-activated protein kinase kinase kinase 7 (Homo sapiens) (UniProt O43318)
T2 sequence (whole entry): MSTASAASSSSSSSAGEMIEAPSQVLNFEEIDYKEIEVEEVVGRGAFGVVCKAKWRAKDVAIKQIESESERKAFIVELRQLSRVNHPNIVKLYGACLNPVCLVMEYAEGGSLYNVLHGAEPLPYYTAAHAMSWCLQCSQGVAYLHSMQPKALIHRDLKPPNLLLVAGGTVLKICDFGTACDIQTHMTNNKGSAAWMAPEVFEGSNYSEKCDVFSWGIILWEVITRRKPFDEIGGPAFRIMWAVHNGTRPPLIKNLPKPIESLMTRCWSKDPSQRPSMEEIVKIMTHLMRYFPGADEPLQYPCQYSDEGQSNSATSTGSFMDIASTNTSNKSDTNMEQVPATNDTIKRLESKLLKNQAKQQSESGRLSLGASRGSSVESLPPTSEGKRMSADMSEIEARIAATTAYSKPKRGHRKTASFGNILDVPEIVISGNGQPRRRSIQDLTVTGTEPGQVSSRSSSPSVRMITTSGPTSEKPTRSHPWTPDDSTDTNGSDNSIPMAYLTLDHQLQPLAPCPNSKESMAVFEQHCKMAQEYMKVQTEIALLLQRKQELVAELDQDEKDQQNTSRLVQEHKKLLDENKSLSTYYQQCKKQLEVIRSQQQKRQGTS

[9] = target: Serine/threonine-protein kinase ULK3 (Homo sapiens) (UniProt Q6PHR2)
Sequence of Serine/threonine-protein kinase ULK3 (Homo sapiens) (Q6PHR2 whole entry): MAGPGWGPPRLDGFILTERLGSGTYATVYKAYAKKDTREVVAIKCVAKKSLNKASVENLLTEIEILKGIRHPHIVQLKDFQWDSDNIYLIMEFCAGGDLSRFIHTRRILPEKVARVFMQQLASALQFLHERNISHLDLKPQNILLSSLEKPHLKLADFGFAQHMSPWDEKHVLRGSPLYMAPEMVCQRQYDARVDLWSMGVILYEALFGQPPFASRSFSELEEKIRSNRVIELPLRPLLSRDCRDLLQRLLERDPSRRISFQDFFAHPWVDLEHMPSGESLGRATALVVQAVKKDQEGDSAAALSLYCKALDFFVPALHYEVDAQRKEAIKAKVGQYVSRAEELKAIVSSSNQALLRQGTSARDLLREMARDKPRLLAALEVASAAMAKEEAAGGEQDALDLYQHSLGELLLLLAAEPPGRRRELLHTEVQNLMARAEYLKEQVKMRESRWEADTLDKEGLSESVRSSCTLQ

[10] = target: T3, Mitogen-activated protein kinase kinase kinase kinase 2 (Homo sapiens) (UniProt Q12851)
T3 sequence (whole entry): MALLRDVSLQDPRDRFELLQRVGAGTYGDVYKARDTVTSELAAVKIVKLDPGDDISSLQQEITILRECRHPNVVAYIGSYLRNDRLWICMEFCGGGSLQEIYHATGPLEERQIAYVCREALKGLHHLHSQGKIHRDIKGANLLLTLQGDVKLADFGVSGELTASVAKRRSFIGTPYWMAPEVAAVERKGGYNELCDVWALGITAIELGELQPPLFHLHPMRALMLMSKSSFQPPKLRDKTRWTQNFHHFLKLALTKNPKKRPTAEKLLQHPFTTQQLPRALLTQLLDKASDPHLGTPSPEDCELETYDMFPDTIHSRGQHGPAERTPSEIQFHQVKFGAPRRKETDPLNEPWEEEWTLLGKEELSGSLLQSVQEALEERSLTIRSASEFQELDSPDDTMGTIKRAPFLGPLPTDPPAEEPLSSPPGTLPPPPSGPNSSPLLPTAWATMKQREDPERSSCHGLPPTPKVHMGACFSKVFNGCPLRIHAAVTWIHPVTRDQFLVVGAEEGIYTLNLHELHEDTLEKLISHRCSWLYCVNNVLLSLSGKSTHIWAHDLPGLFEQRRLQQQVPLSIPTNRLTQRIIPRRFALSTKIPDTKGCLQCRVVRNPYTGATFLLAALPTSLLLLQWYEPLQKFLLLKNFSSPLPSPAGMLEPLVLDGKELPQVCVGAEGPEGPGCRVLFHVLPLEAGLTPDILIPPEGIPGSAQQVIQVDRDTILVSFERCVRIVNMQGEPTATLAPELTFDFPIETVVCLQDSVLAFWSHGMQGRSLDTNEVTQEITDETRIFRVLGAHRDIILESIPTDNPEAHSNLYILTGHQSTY

[11] = target: Tyrosine-protein kinase JAK1 (Homo sapiens) (UniProt P23458)
[12] = target: Eukaryotic translation initiation factor 2-alpha kinase 1 (Homo sapiens) (UniProt Q9BQI3)
Sequence of Eukaryotic translation initiation factor 2-alpha kinase 1 (Homo sapiens) (Q9BQI3 whole entry): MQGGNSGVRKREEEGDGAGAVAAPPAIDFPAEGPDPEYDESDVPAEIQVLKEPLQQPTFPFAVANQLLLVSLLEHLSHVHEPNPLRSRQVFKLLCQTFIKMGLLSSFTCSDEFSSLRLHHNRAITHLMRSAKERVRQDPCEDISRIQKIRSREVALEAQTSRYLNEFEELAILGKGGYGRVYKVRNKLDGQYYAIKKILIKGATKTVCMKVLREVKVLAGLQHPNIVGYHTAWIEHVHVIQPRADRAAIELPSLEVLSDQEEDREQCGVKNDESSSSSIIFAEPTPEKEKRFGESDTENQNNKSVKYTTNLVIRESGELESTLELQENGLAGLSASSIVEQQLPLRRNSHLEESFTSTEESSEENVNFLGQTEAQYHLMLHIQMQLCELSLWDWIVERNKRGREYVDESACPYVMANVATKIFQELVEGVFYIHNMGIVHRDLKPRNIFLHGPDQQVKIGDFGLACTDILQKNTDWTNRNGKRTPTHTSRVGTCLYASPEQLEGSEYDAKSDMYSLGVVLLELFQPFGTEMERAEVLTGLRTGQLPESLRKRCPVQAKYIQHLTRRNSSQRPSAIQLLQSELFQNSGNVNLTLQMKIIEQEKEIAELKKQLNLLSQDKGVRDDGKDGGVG

[13] = target: BDNF/NT-3 growth factors receptor (Homo sapiens) (UniProt Q16620)
Sequence of BDNF/NT-3 growth factors receptor (Homo sapiens) (Q16620 32-822 limits assumed): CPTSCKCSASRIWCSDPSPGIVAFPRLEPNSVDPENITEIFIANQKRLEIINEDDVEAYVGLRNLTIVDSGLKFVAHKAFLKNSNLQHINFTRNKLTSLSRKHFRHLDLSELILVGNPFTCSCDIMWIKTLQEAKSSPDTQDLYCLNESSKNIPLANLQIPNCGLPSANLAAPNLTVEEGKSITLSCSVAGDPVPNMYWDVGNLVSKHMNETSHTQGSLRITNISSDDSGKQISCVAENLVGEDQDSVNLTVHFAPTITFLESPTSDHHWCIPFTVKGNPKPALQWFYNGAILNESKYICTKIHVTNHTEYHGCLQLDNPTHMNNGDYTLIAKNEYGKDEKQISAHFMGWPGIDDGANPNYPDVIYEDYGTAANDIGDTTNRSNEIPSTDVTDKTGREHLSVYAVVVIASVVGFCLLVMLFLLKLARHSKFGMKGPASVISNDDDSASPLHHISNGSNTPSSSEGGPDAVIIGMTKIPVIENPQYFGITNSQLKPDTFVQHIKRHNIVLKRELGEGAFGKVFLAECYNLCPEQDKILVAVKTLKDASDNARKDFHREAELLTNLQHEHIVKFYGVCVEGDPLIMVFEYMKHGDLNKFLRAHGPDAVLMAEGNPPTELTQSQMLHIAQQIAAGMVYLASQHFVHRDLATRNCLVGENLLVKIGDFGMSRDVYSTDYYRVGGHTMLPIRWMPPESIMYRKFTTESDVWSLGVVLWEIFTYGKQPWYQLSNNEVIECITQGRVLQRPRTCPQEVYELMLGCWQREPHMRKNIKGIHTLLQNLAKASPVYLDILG

[14] = target: Ribosomal protein S6 kinase alpha-5 (Homo sapiens) (UniProt O75582)
[15] = target: Phosphatidylinositol 4-phosphate 5-kinase type-1 gamma (Homo sapiens) (UniProt O60331)
[16] = target: Serine/threonine-protein kinase LATS1 (Homo sapiens) (UniProt O95835)
Sequence of Serine/threonine-protein kinase LATS1 (Homo sapiens) (O95835 whole entry): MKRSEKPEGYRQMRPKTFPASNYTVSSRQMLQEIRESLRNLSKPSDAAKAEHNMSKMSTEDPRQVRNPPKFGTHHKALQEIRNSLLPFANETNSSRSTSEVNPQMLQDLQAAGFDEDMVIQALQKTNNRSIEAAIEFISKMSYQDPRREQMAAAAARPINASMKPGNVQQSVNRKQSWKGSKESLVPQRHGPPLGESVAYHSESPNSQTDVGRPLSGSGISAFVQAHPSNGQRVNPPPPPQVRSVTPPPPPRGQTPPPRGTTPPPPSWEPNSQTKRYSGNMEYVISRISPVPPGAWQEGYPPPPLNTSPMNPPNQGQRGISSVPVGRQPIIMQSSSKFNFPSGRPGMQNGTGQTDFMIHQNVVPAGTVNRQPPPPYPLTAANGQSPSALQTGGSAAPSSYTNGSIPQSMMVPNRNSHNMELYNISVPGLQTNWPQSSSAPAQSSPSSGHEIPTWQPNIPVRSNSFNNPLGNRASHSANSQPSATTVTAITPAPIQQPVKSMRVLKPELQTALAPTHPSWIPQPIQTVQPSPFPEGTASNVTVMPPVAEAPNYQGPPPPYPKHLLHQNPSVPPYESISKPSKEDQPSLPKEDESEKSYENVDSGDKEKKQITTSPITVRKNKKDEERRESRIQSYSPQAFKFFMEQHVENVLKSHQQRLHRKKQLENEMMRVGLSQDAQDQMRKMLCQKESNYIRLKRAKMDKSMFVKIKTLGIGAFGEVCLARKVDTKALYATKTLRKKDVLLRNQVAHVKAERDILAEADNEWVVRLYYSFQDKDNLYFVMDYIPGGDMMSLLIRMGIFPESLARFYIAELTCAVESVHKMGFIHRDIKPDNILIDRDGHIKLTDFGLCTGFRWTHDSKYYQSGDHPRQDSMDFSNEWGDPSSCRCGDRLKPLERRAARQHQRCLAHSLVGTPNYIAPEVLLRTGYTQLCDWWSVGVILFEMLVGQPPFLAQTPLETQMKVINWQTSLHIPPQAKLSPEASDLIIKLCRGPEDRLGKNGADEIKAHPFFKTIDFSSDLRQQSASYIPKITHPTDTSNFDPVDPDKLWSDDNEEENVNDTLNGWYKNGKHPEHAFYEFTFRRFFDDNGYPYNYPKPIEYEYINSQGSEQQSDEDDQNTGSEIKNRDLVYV

[17] = target: RAC-beta serine/threonine-protein kinase (Homo sapiens) (UniProt P31751)
Sequence of RAC-beta serine/threonine-protein kinase (Homo sapiens) (P31751 whole entry): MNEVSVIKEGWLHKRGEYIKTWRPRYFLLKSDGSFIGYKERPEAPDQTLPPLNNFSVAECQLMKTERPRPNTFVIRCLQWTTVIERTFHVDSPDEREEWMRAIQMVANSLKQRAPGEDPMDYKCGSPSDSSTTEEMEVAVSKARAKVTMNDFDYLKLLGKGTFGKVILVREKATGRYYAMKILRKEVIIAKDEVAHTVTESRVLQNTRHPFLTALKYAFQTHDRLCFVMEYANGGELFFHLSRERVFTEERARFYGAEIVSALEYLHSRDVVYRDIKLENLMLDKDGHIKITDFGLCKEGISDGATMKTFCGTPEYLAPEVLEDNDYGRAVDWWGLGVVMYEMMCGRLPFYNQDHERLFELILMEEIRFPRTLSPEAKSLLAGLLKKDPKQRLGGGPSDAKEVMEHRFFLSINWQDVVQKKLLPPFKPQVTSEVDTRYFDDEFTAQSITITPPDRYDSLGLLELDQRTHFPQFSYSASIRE

[18] = Compound concentration 1000.0 nM
[19] = Compound concentration 100.0 nM

Measured: residual activity

Sequence of Dual specificity mitogen-activated protein kinase kinase 7 (Homo sapiens) (O14733 whole entry): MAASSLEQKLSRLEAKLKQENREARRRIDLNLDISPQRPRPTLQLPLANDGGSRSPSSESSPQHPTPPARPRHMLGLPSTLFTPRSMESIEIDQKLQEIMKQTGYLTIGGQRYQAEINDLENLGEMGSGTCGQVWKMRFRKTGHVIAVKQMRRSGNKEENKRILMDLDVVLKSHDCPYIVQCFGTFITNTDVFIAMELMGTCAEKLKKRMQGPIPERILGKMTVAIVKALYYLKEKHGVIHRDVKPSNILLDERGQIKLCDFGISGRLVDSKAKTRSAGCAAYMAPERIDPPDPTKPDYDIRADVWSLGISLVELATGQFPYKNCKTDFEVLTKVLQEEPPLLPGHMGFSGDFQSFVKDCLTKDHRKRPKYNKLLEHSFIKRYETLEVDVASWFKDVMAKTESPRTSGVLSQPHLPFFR
Sequence of Calcium/calmodulin-dependent protein kinase kinase 2 (Homo sapiens) (Q96RR4 2-588 limits assumed): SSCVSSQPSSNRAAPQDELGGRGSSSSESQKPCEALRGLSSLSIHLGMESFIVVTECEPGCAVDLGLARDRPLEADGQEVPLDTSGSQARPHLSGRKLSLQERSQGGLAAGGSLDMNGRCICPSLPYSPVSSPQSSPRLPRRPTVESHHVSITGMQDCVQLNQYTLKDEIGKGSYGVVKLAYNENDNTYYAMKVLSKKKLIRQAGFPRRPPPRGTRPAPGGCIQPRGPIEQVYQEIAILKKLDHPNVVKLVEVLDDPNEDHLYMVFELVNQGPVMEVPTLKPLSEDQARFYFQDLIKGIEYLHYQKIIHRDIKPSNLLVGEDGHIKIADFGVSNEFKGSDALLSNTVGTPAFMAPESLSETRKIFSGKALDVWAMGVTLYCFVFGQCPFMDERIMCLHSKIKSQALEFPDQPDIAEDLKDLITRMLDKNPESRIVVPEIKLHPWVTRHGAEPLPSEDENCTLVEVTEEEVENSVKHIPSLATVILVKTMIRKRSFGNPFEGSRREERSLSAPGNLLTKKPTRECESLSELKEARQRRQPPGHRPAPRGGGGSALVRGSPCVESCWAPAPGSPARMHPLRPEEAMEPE

C[C@@H]1CN(c2cc(-c3nn(C)c4ccc(OC5(C)CC5)cc34)ncn2)C[C@H](C)O1 [MLi-2-NC]
inactive: [1]; [18] 100% | [2]; [18] 85% | [3]; [18] 78% | [4]; [18] 74% | [5]; [18] 90% | [6]; [18] 89% | [7]; [18] 90% | [8]; [18] 89% | [9]; [18] 67% | [10]; [18] 81% | [11]; [18] 84% | [12]; [18] 60% | [13]; [18] 65% | [14]; [18] 100% | [15]; [18] 90% | [16]; [18] 100% | [17]; [18] 89%

C[C@@H]1CN(c2cc(-c3n[nH]c4ccc(OC5(C)CC5)cc34)ncn2)C[C@H](C)O1 [MLi-2]
inactive: [1]; [19] 91% | [2]; [19] 100% | [3]; [19] 90% | [4]; [19] 77% | [5]; [19] 64% | [6]; [19] 85% | [7]; [19] 95% | [8]; [19] 70% | [9]; [19] 78% | [10]; [19] 76% | [11]; [19] 79% | [12]; [19] 100% | [13]; [19] 67% | [14]; [19] 97% | [15]; [19] 92% | [16]; [19] 96% | [17]; [19] 100%
